From patent publication US20120283216A1, “FUNGICIDAL 2-(BICYCLIC ARYLOXY)CARBOXAMIDES” (priority 2009, published 2012)

Legend:
Type in all cases: in vivo
Botrytis cinerea = assay: Test C: tomato botrytis, preventive spray on tomato seedlings, visual disease rating; settings: preventive spray at 40 ppm, rated after 48 h + 3 days; for pest or weed control at 40 ppm: Botrytis cinerea, 120 h, read-out: Test C disease control rating (100 = 100% disease control, 0 = no disease control relative to the controls)
Description: General protocol for preparing test suspensions for Tests A-C: the test compounds were first dissolved in acetone in an amount equal to 11% of the final volume and then suspended at the desired concentration (in ppm) in acetone and purified water (50/50 mix by volume) containing 250 ppm of the surfactant Trem® 014 (polyhydric alcohol esters). The resulting test suspensions were then used in Tests A-C. Spraying a 40 ppm test suspension to the point of run-off on the test plants was the equivalent of a rate of 800 g/ha.
The test suspension was sprayed to the point of run-off on tomato seedlings. The following day the seedlings were inoculated with a spore suspension of Botrytis cinerea (the causal agent of tomato botrytis) and incubated in saturated atmosphere at 20° C. for 48 h, and then moved to a growth chamber at 27° C. for 3 additional days, after which time disease ratings were visually made.
Results for Tests A-C are given in Table A. In the Table, a rating of 100 indicates 100% disease control and a rating of 0 indicates no disease control (relative to the controls). A dash (-) indicates no test results. All results are from applications of 40 ppm.

Septoria tritici = assay: Test B: wheat leaf blotch, preventive spray on wheat seedlings, visual disease rating; settings: preventive spray at 40 ppm, rated after 48 h + 19 days; for pest or weed control at 40 ppm: Zymoseptoria tritici, 504 h, read-out: Test B disease control rating (100 = 100% disease control, 0 = no disease control relative to the controls)
Description: (§1) General protocol for preparing test suspensions for Tests A-C: the test compounds were first dissolved in acetone in an amount equal to 11% of the final volume and then suspended at the desired concentration (in ppm) in acetone and purified water (50/50 mix by volume) containing 250 ppm of the surfactant Trem® 014 (polyhydric alcohol esters). The resulting test suspensions were then used in Tests A-C. Spraying a 40 ppm test suspension to the point of run-off on the test plants was the equivalent of a rate of 800 g/ha. The test suspension was sprayed to the point of run-off on wheat seedlings. The following day the seedlings were inoculated with a spore suspension of Septoria tritici (the causal agent of wheat leaf blotch) and incubated in a saturated atmosphere at 20° C. for 48 h, and then moved to a growth chamber at 20° C. for 19 days, after which time disease ratings were visually made. Results for Tests A-C are given in Table A. In the Table, a rating of 100 indicates 100% disease control and a rating of 0 indicates no disease control (relative to the controls). A dash (-) indicates no test results. All results are from applications of 40 ppm.

[1] = test system: Blumeria graminis f. sp. tritici; assay: Test A: wheat powdery mildew, preventive spray on wheat seedlings, visual disease rating; settings: preventive spray at 40 ppm, rated 8 days after inoculation; for pest or weed control at 40 ppm: Blumeria graminis, 192 h, read-out: Test A disease control rating (100 = 100% disease control, 0 = no disease control relative to the controls)
Description: as §1, with “spore dust” for “spore suspension”, “of Blumeria graminis f. sp. tritici,” for “of Septoria tritici”, “wheat powdery mildew)” for “wheat leaf blotch)”, “in” for “in a saturated atmosphere at 20° C. for 48 h, and then moved to”, “for 8” for “for 19”

CCC(Oc1ccc2ccc(C#N)cc2c1)C(=O)NC(C)(C)COCOC (stereo not drawn) [Compound 22, 2-[(7-cyano-2-naphthalenyl)oxy]-N-[2-(methoxymethoxy)-1,1-dimethylethyl]butanamide]
pest or weed control at 40 ppm (Botrytis cinerea): 100%
pest or weed control at 40 ppm (Septoria tritici): 100%
pest or weed control at 40 ppm [1]: 93%

COCC(C)(C)NC(=O)C(C)Oc1ccc2ccc(Br)cc2c1 (stereo not drawn) [Compound 24, 2-[(7-bromo-2-naphthalenyl)oxy]-N-(2-methoxy-1,1-dimethylethyl)propanamide]
pest or weed control at 40 ppm (Botrytis cinerea): 98%
pest or weed control at 40 ppm (Septoria tritici): 100%
pest or weed control at 40 ppm [1]: 100%

COCC(C)(C)NC(=O)C(C)Oc1ccc2ccc(C#N)cc2c1 (stereo not drawn) [Compound 25]
Test C disease control rating (100 = 100% disease control, 0 = no disease control relative to the controls) (Botrytis cinerea): 99%
Test B disease control rating (100 = 100% disease control, 0 = no disease control relative to the controls) (Septoria tritici): 96%
Test A disease control rating (100 = 100% disease control, 0 = no disease control relative to the controls) [1]: 47%

CCC(Oc1ccc2ccc(Br)cc2c1)C(=O)NC(C)(C)CF (stereo not drawn) [Compound 26, 2-[(7-bromo-2-naphthalenyl)oxy]-N-(2-fluoro-1,1-dimethylethyl)butanamide]
pest or weed control at 40 ppm (Botrytis cinerea): 99%
pest or weed control at 40 ppm (Septoria tritici): 100%
pest or weed control at 40 ppm [1]: 100%

CCC(Oc1ccc2ccc(Br)cc2c1)C(=O)NC(C)(C)C(F)(F)F (stereo not drawn) [Compound 27]
Test C disease control rating (100 = 100% disease control, 0 = no disease control relative to the controls) (Botrytis cinerea): 98%
Test B disease control rating (100 = 100% disease control, 0 = no disease control relative to the controls) (Septoria tritici): 86%
Test A disease control rating (100 = 100% disease control, 0 = no disease control relative to the controls) [1]: 99%

CCC(Oc1ccc2ccc(Br)cc2c1)C(=O)NC(C)(C)CSC(C)=O (stereo not drawn) [Compound 28]
Test C disease control rating (100 = 100% disease control, 0 = no disease control relative to the controls) (Botrytis cinerea): 99%
Test B disease control rating (100 = 100% disease control, 0 = no disease control relative to the controls) (Septoria tritici): 99%
Test A disease control rating (100 = 100% disease control, 0 = no disease control relative to the controls) [1]: 91%

CCC(Oc1ccc2ccc(N)cc2c1)C(=O)NC(C)(C)C (stereo not drawn) [Compound 29]
pest or weed control at 40 ppm (Botrytis cinerea): 95%
pest or weed control at 40 ppm (Septoria tritici): 76%
pest or weed control at 40 ppm [1]: 0%

CC(=O)C(Oc1ccc2ccc(Br)cc2c1)C(=O)NC(C)(C)C (stereo not drawn) [Compound 32]
pest or weed control at 40 ppm (Botrytis cinerea): 26%
pest or weed control at 40 ppm (Septoria tritici): 0%
pest or weed control at 40 ppm [1]: 0%

CCC(Oc1ccc2ccc(C#N)cc2c1)C(=O)NC(C)(C)C (stereo not drawn) [Compound 33]
pest or weed control at 40 ppm (Botrytis cinerea): 95%
pest or weed control at 40 ppm (Septoria tritici): 99%
pest or weed control at 40 ppm [1]: 62%

COCC(Oc1cnc2ccc(Br)cc2c1)C(=O)NC(C)(C)C (stereo not drawn) [Compound 34]
Test C disease control rating (100 = 100% disease control, 0 = no disease control relative to the controls) (Botrytis cinerea): 94%
Test B disease control rating (100 = 100% disease control, 0 = no disease control relative to the controls) (Septoria tritici): 92%
Test A disease control rating (100 = 100% disease control, 0 = no disease control relative to the controls) [1]: 0%

C#CC(C)(C)NC(=O)C(COC)Oc1cnc2ccc(Br)cc2c1 (stereo not drawn) [Compound 36]
Test C disease control rating (100 = 100% disease control, 0 = no disease control relative to the controls) (Botrytis cinerea): 36%
Test B disease control rating (100 = 100% disease control, 0 = no disease control relative to the controls) (Septoria tritici): 89%
Test A disease control rating (100 = 100% disease control, 0 = no disease control relative to the controls) [1]: 0%

CCC(Oc1cnc2ccc(Br)cc2c1)C(=O)NC(C)(C)C (stereo not drawn) [Compound 37, 2-[(6-bromo-3-quinolinyl)oxy]-N-(1,1-dimethylethyl)butanamide]
pest or weed control at 40 ppm (Botrytis cinerea): 99%
pest or weed control at 40 ppm (Septoria tritici): 100%
pest or weed control at 40 ppm [1]: 89%

C#CC(C)(C)NC(=O)C(CC)Oc1cnc2ccc(Br)cc2c1 (stereo not drawn) [Compound 38]
Test C disease control rating (100 = 100% disease control, 0 = no disease control relative to the controls) (Botrytis cinerea): 99%
Test B disease control rating (100 = 100% disease control, 0 = no disease control relative to the controls) (Septoria tritici): 100%
Test A disease control rating (100 = 100% disease control, 0 = no disease control relative to the controls) [1]: 21%

CCC(Oc1cnc2ccc(Br)cc2c1)C(=O)NC(C)(C)CO (stereo not drawn) [Compound 39]
Test C disease control rating (100 = 100% disease control, 0 = no disease control relative to the controls) (Botrytis cinerea): 33%
Test B disease control rating (100 = 100% disease control, 0 = no disease control relative to the controls) (Septoria tritici): 0%
Test A disease control rating (100 = 100% disease control, 0 = no disease control relative to the controls) [1]: 21%

CCC(Oc1cnc2ccc(Cl)cc2c1)C(=O)NC(C)(C)C (stereo not drawn) [Compound 40]
pest or weed control at 40 ppm (Botrytis cinerea): 99%
pest or weed control at 40 ppm (Septoria tritici): 100%
pest or weed control at 40 ppm [1]: 92%

C#CC(C)(C)NC(=O)C(CC)Oc1cnc2ccc(Cl)cc2c1 (stereo not drawn) [Compound 41]
Test C disease control rating (100 = 100% disease control, 0 = no disease control relative to the controls) (Botrytis cinerea): 96%
Test B disease control rating (100 = 100% disease control, 0 = no disease control relative to the controls) (Septoria tritici): 96%
Test A disease control rating (100 = 100% disease control, 0 = no disease control relative to the controls) [1]: 0%

CCC(Oc1cnc2ccc(Cl)cc2c1)C(=O)NC(C)(C)CO (stereo not drawn) [Compound 42]
Test C disease control rating (100 = 100% disease control, 0 = no disease control relative to the controls) (Botrytis cinerea): 0%
Test B disease control rating (100 = 100% disease control, 0 = no disease control relative to the controls) (Septoria tritici): 0%
Test A disease control rating (100 = 100% disease control, 0 = no disease control relative to the controls) [1]: 0%

CCC(Oc1cnc2ccc(Br)cc2c1)C(=O)NC1(C(=O)OC)CC1 (stereo not drawn) [Compound 44]
Test C disease control rating (100 = 100% disease control, 0 = no disease control relative to the controls) (Botrytis cinerea): 0%
Test B disease control rating (100 = 100% disease control, 0 = no disease control relative to the controls) (Septoria tritici): 0%
Test A disease control rating (100 = 100% disease control, 0 = no disease control relative to the controls) [1]: 0%

CCC(Oc1cnc2ccc(F)cc2c1)C(=O)NC(C)(C)C (stereo not drawn) [Compound 45]
pest or weed control at 40 ppm (Botrytis cinerea): 98%
pest or weed control at 40 ppm (Septoria tritici): 42%
pest or weed control at 40 ppm [1]: 84%

CCC(Oc1cnc2ccc(F)cc2c1)C(=O)NC1(C#N)CC1 (stereo not drawn) [Compound 46]
Test C disease control rating (100 = 100% disease control, 0 = no disease control relative to the controls) (Botrytis cinerea): 0%
Test B disease control rating (100 = 100% disease control, 0 = no disease control relative to the controls) (Septoria tritici): 0%
Test A disease control rating (100 = 100% disease control, 0 = no disease control relative to the controls) [1]: 0%

C#CC(C)(C)NC(=O)C(CC)Oc1cnc2ccc(F)cc2c1 (stereo not drawn) [Compound 47]
Test C disease control rating (100 = 100% disease control, 0 = no disease control relative to the controls) (Botrytis cinerea): 70%
Test B disease control rating (100 = 100% disease control, 0 = no disease control relative to the controls) (Septoria tritici): 20%
Test A disease control rating (100 = 100% disease control, 0 = no disease control relative to the controls) [1]: 0%

CCC(Oc1cnc2ccc(Br)cc2c1)C(=O)NC(C)(C)COC (stereo not drawn) [Compound 48]
Test C disease control rating (100 = 100% disease control, 0 = no disease control relative to the controls) (Botrytis cinerea): 99%
Test B disease control rating (100 = 100% disease control, 0 = no disease control relative to the controls) (Septoria tritici): 99%
Test A disease control rating (100 = 100% disease control, 0 = no disease control relative to the controls) [1]: 96%

CCC(Oc1cnc2ccc(Cl)cc2c1)C(=O)NC(C)(C)COC (stereo not drawn) [Compound 49]
Test C disease control rating (100 = 100% disease control, 0 = no disease control relative to the controls) (Botrytis cinerea): 98%
Test B disease control rating (100 = 100% disease control, 0 = no disease control relative to the controls) (Septoria tritici): 99%
Test A disease control rating (100 = 100% disease control, 0 = no disease control relative to the controls) [1]: 96%

CCOCC(C)(C)NC(=O)C(CC)Oc1cnc2ccc(Cl)cc2c1 (stereo not drawn) [Compound 50]
Test C disease control rating (100 = 100% disease control, 0 = no disease control relative to the controls) (Botrytis cinerea): 90%
Test B disease control rating (100 = 100% disease control, 0 = no disease control relative to the controls) (Septoria tritici): 98%
Test A disease control rating (100 = 100% disease control, 0 = no disease control relative to the controls) [1]: 84%

CCC(Oc1cnc2ccc(I)cc2c1)C(=O)NC(C)(C)C (stereo not drawn) [Compound 51, N-(1,1-dimethylethyl)-2-[(6-iodo-3-quinolinyl)oxy]butanamide]
pest or weed control at 40 ppm (Botrytis cinerea): 99%
pest or weed control at 40 ppm (Septoria tritici): 100%
pest or weed control at 40 ppm [1]: 93%

CCC(Oc1cnc2ccc(I)cc2c1)C(=O)NC(C)(C)CO (stereo not drawn) [Compound 52]
Test C disease control rating (100 = 100% disease control, 0 = no disease control relative to the controls) (Botrytis cinerea): 82%
Test B disease control rating (100 = 100% disease control, 0 = no disease control relative to the controls) (Septoria tritici): 45%
Test A disease control rating (100 = 100% disease control, 0 = no disease control relative to the controls) [1]: 0%

CCC(Oc1cnc2ccc(I)cc2c1)C(=O)NC(C)(C)COC (stereo not drawn) [Compound 53]
Test C disease control rating (100 = 100% disease control, 0 = no disease control relative to the controls) (Botrytis cinerea): 99%
Test B disease control rating (100 = 100% disease control, 0 = no disease control relative to the controls) (Septoria tritici): 100%
Test A disease control rating (100 = 100% disease control, 0 = no disease control relative to the controls) [1]: 99%
